Data on four compounds can be found in patent US20240270713A1, “NOVEL COMPOUND EXHIBITING THERAPEUTIC EFFECT ON INFLAMMATORY DISEASE AS P38 MAP KINASE INHIBITOR” (PRAZERTHERAPEUTICS INC., priority 2021, published 2024).

The term inhibition denotes the drop in the measured response relative to a control, in per cent. Usually IC50 stands for the concentration that inhibits the measured activity by half.

The structures appear in SMILES notation.

For one assay, the system named is IL-1β mRNA. Briefly: Cytokine mRNA expression inhibitory ability, IL-1β, LPS-treated Raw264.7 cells. The class given is cell-based. The conditions noted are these: 1 μM compound 24 hours, then 100 ng/ml LPS 24 hours. The protocol:
(§1) Evaluation of cytokine mRNA expression inhibitory ability according to inflammatory response
(§2) In order to identify inhibition of p-p38 MAPK, inhibition of p38 MAPK was identified after treating each compound to Raw264.7 cells obtained by converting macrophages that induces inflammation according to p-p38 MAPK activity cancerous cells. Briefly, Raw264.7 cells were cultured in Dulbecco's modified Eagle Medium supplemented with 10% fetal bovine serum and penicillin/streptomycin (100 U/ml). Raw264.7 cells were treated with 1 μM of Compounds 1 to 5 according to the present disclosure in a culture dish respectively and cultured for 24 hours in a CO2 incubator, and then treated with 100 ng/ml of LPS, followed by additional culture for 24 hours in a CO2 incubator.
(§3) After cell culture was terminated according to the experimental conditions, cells were washed with cold phosphate buffered saline (PBS). The cells were then collected and centrifuged at 1200 rpm for 3 minutes. RNA was extracted according to the method provided in the Hybrid-R total RNA purification kit (GeneAll, 305-101). After measuring the concentration and purity of RNA using Nanodrop, cDNA was synthesized according to the method provided in TOPscript RT DryMIX (Enzynomics, RT200). After a reaction at 95° C. for 3 minutes using SYBR Green Mix along with primer, cDNA was subjected to repetitive reactions 30 times at 95° C. for 10 seconds, at 55° C. for 10 seconds, and at 72° C. for 30 seconds to determine the RNA expression level. The results are shown in Tables 5 and 6 below and FIGS. 1 and 2.

For a further assay, the target named is p-p38 MAPK (Mus musculus (Mouse), UniProt P47811). Put plainly: p38 MAPK protein inhibitory ability in cells (p-p38 immunoblot, LPS-treated Raw264.7). The class given is cell-based. The conditions noted are these: Raw264.7 cells, 1 μM compound 24 hours, then 100 ng/ml LPS 6 hours. The protocol:
Evaluation of p38 MAPK protein inhibitory ability in cells
as §2, with “Raw264.7 cells which are obtained by” for “Raw264.7 cells obtained by”, “MAPK activity into cancerous cells.” for “MAPK activity cancerous cells.”, “culture for 6 hours in” for “culture for 24 hours in”
After cell culture was terminated according to the experimental conditions, cells were washed with cold phosphate buffered saline (PBS). The cells were then collected and centrifuged at 1200 rpm for 3 minutes. The pellet was lysed with 2X sample buffer (1M Tris-HCl pH 6.8, 50% glycerol, 10% SDS, 2-mercaptoethanol, 1% bromophenol blue) and boiled at 100° C. for 10 minutes. The prepared protein samples were subjected to sodium dodecyl sulfate poly acrylamide gel electrophoresis and transferred to PVDF membrane (Millipore). For a specific binding reaction between the protein in the PVDF membrane and antibody, blocking was performed in a 5% bovine serum albumin (BSA, RMbio) solution. Subsequently, the BSA solution was discarded, and the membrane was washed with PBS-T (0.5% Tween 20 in PBS). The binding reaction of the protein in the membrane and antibody was performed overnight at 4° C. and washed again with PBS-T. Finally, a secondary antibody (Cell signaling Technology) conjugated with horse radish peroxidase (HRP) was diluted in PBS-T and reacted at room temperature for 2 hours. Luminata Forte HRP substrate (Millipore) was used to determine the amount of protein in the membrane, the results of which are shown in Table 4 below.
For orientation: In western blotting, separated proteins are transferred to a membrane and probed.

The next assay has as its system TNFα mRNA. Briefly: Cytokine mRNA expression inhibitory ability, TNFα, LPS-treated Raw264.7 cells. It counts as cell-based. The conditions noted are these: 1 μM compound 24 hours, then 100 ng/ml LPS 24 hours. The protocol:
as §1, §2, §3

A further assay deals with p38 alpha (Homo sapiens (Human), UniProt Q16539). Put plainly: p38α MAPK inhibitory ability (peptide/kinase mixture, development reagent, 445/520 nm). It counts as biochemical. The conditions noted are these: 1 hour at room temperature. The protocol:
Evaluation of p38a mitogen-activated protein kinase (MAPK) inhibitory ability
To determine the ability to inhibit p38 MAPK, Compounds 1 to 5 were diluted to determine the inhibitory effect depending on a concentration. Briefly, the compounds were diluted at concentrations of 1000, 333, 111, 37.0, 12.3, 4.12, 1.37, 0.457, 0.152, and 0.0495 nM, respectively, and then a peptide/kinase mixture (final 7.07-28.3 ng p38 alpha, 2 μM serine/threonine 15, 50 mM HEPES pH 7.0, 0.01% NaN3) and ATP solution were added respectively. After reacting at room temperature for 1 hour, a development reagent was added, followed by a reaction again at room temperature for 1 hour.

A further assay concerns TNFα. Put plainly: TNFα inhibitory ability by cellular inflammatory response (supernatant, antibody-coated plate), Raw264.7 cells. The class given is cell-based. The conditions noted are these: Mus musculus, 1 μM compound 24 hours, then 100 ng/ml LPS 24 hours, supernatant protein. The protocol: Evaluation of TNFα inhibitory ability by cellular inflammatory response
as §2
After the cell culture was completed according to the experimental conditions, the supernatant was obtained and centrifuged for 3 minutes at 1200 rpm. The centrifuged supernatant was dispensed into an antibody-coated plate, reacted at room temperature for 2 hours, and washed with PBS-T (0.5% tween 20 in PBS). After dispensing detection antibody including HRP, a reaction was performed at room temperature for 1 hour, and the amount of protein was checked at a wavelength of 450 nm, the results of which are shown in Table 7 below.

p38 alpha, sequence (Q16539 whole entry): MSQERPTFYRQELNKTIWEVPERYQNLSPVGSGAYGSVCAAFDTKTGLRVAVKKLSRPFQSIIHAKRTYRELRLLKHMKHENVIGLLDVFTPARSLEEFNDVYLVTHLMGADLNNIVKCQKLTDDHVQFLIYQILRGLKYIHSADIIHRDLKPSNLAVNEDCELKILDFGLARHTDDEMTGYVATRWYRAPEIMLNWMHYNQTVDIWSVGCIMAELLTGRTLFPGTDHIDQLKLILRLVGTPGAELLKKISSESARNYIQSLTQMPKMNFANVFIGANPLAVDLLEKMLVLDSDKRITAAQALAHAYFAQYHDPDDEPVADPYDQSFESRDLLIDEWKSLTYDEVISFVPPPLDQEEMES
p-p38 MAPK, sequence (P47811 whole entry): as the sequence (Q16539 whole entry) above, with L48H, T263A counted along it

Consider `Cc1c(F)cc(C(=O)NC2CC2)cc1-c1ccc(C(=O)c2ccc(OCC(O)CO)cc2)cn1` (centres unmarked) [Compound 1, N-cyclopropyl-3-(5-(4-(2,3-dihydroxypropoxy)benzoyl)pyridin-2-yl)-5-fluoro-4-methylbenzamide], for which the “IL-1β mRNA inhibition” value in the assay with IL-1β mRNA was found to be 21.4%. Also, the values for the inhibition at 1 µM against p-p38 MAPK and with TNFα were 11.3% and 22.1%, respectively. Also, the “TNFα mRNA inhibition” value with TNFα mRNA was 38.1%. For the same compound, the IC50 on p38 alpha was determined as 22.3 nM.
Consider `O=C(NC1CC1)c1ccc(Cl)c(-c2ccc(C(=O)c3c[nH]c4ccccc34)cc2)c1` [Compound 2, 6-chloro-N-cyclopropyl-4′-(1H-indole-3-carbonyl)-[1,1′-biphenyl]-3-carboxamide], for which the “IL-1β mRNA inhibition” value in the assay on IL-1β mRNA worked out at 24.4%. Also, the inhibition at 1 µM came out at 69% against p-p38 MAPK and 68.5% with TNFα. Besides, the “TNFα mRNA inhibition” value in the assay with TNFα mRNA amounted to 37.6%. The concentration for half-maximal inhibition (IC50) at p38 alpha is 34.1 nM.
On to `Cc1c(F)cc(C(=O)NC2CC2)cc1-c1ccc(C(=O)c2c[nH]c3cc(OCC(O)CO)ccc23)cn1` (centres unmarked) [Compound 3, N-cyclopropyl-3-(5-(6-(2,3-dihydroxypropoxy)-1H-indole-3-carbonyl)pyridin-2-yl)-5-fluoro-4-methylbenzamide], for which the “IL-1β mRNA inhibition” value in the assay with IL-1β mRNA is 12.3%. In addition, the results for the inhibition at 1 µM at p-p38 MAPK and with TNFα were 39.7% and 16.7%, respectively. Further, the “TNFα mRNA inhibition” value with TNFα mRNA is listed as 39.2%. In addition, the IC50 on p38 alpha was 34.3 nM.
`Cc1c(F)cc(C(=O)NC2CC2)cc1-c1ccc(C(=O)c2cn(Cc3ccccc3)c3ccccc23)cn1` [Compound 5, 3-(5-(1-benzyl-1H-indole-3-carbonyl)pyridin-2-yl)-N-cyclopropyl-5-fluoro-4-methylbenzamide]: in the assay with IL-1β mRNA, the “IL-1β mRNA inhibition” value is reported as 3.2%. In addition, the values for the inhibition at 1 µM on p-p38 MAPK and in the assay on TNFα were 52.8% and 23.8%, respectively. The “TNFα mRNA inhibition” value with TNFα mRNA is on record as 4.1%. Besides, the IC50 at p38 alpha worked out at 193 nM.
